The text below walks through data of patent US20240165244A1 (Prelude Therapeutics Incorporated, priority 2022, published 2024).

The target in assay [1] is T1, SMARCA2 (Homo sapiens, UniProt P51531).
T1 construct: SMARCA2-HiBiT knock-in Hela monoclonal cell (CS302366); host or cells: HeLa monoclonal cells with heterozygous HiBiT knock-in at the endogenous SMARCA2 locus
The assay is described as follows: SMARCA2 HiBiT degradation assay in HeLa cells. The format is cell-based. The following applies: 18 hours, highest concentration 10 μM. As to the method:
(§1) SMARCA2 HiBiT and SMARCA4 HiBiT Degradation Assay
HiBiT peptide knock-in of SMARCA2 in LgBiT expressing HEK293T cells was performed by CRISPR-mediated tagging system as described Promega. The homozygous HiBiT knock-in on c-terminus SMARCA2 was confirmed by sanger sequence. SMARCA2-HiBiT knock-in Hela monoclonal cell (CS302366) and SMARCA4-HiBiT knock-in Hela monoclonal cell (CS3023226) were purchased from Promega. The heterozygous HiBiT-knock-in was confirmed by sanger sequence in both SMARCA2-HiBiT and SMARCA4-HiBiT monoclonal cells.
(§2) SMARCA2 HiBiT and SMARCA4 HiBiT Degradation Assay in HeLa Cells
Dispense 10 ul aliquot of prepared Hela-SMARCA2-HiBiT or Hela-SMARCA4-HiBiT cells (1:1 ratio of cells:Trypan Blue (#1450013, Bio-Rad)) onto cell counting slide (#145-0011, Bio-Rad) and obtain cell density and cell viability using cell counter (TC20, Bio-Rad). Remove appropriate volume of resuspended cells from culture flask to accommodate 2500 cells/well @ 20 μL/well. Transfer Hela-HiBiT cells to 50 mL conical (#430290, Corning). Spin down at 1000 rpm for 5 min using tabletop centrifuge (SPINCHRON 15, Beckman). Discard supernatant and resuspend cell pellet in modified EMEM (#30-2003, ATCC) cell culture media containing 10% FBS (F2422-500ML, Sigma), and 1× Penicillin/Streptomycin ([…]) (30-002-CI, Corning) to a cell density of 125,000 cells/mL. Dispense 20 μLof resuspended Hela-HiBit cells per well in 384-well TC treated plate (#12-565-343, Thermo Scientific) using standard cassette (#50950372, Thermo Scientific) on Multidrop Combi (#5840310, Thermo Scientific) inside laminar flow cabinet.
Compounds were dissolved in DMSO to make 10 mM stock and 3-fold series dilutions were further conducted keeping the highest concentration 10 μM. Dispense test compounds onto plates using digital liquid dispenser (D300E, Tecan). Incubate plates in humidified tissue culture incubator @37° C. for 18 hours. Add 20 μL of prepared Nano-Glo® HiBiT Lytic detection buffer (N3050, Promega) to each well of 384-well plate using small tube cassette (#24073295, Thermo Scientific) on Multidrop Combi, incubate @ RT for 30-60 min. Read plates on microplate reader (Envision 2105, PerkinElmer) using 384 well Ultra-Sensitive luminescence mode. Raw data files and compound information reports are swept into centralized data lake and deconvoluted using automated scripts designed by TetraScience, Inc. Data analysis, curve-fitting and reporting done in Dotmatics Informatics Suite using Screening Ultra module.
On the technique in general: HiBiT is a short tag that completes a luciferase, so light tracks the accessible tagged protein.

Assay [2] concerns the target T2, SMARCA4 (Homo sapiens, UniProt P51532).
T2 construct: SMARCA4-HiBiT knock-in Hela monoclonal cell (CS3023226); host or cells: HeLa monoclonal cells with heterozygous HiBiT knock-in at the endogenous SMARCA4 locus
The assay is described as follows: SMARCA4 HiBiT degradation assay in HeLa cells. The assay is classed as cell-based. The following applies: 18 hours, highest concentration 10 μM. How it is done: as §1
HiBiT peptide knock-in of SMARCA2 in LgBiT expressing HEK293T cells was performed by CRISPR-mediated tagging system as described Promega. […] SMARCA2-HiBiT knock-in Hela monoclonal cell (CS302366) and SMARCA4-HiBiT knock-in Hela monoclonal cell (CS3023226) were purchased from Promega.
as §2
Remove appropriate volume of resuspended cells from culture flask to accommodate 2500 cells/well @ 20 μL/well. […] Spin down at 1000 rpm for 5 min using tabletop centrifuge (SPINCHRON 15, Beckman).
Dispense test compounds onto plates using digital liquid dispenser (D300E, Tecan). Incubate plates in humidified tissue culture incubator @37° C. for 18 hours. […] Raw data files and compound information reports are swept into centralized data lake and deconvoluted using automated scripts designed by TetraScience, Inc. Data analysis, curve-fitting and reporting done in Dotmatics Informatics Suite using Screening Ultra module.

T1 sequence (P51531 whole entry): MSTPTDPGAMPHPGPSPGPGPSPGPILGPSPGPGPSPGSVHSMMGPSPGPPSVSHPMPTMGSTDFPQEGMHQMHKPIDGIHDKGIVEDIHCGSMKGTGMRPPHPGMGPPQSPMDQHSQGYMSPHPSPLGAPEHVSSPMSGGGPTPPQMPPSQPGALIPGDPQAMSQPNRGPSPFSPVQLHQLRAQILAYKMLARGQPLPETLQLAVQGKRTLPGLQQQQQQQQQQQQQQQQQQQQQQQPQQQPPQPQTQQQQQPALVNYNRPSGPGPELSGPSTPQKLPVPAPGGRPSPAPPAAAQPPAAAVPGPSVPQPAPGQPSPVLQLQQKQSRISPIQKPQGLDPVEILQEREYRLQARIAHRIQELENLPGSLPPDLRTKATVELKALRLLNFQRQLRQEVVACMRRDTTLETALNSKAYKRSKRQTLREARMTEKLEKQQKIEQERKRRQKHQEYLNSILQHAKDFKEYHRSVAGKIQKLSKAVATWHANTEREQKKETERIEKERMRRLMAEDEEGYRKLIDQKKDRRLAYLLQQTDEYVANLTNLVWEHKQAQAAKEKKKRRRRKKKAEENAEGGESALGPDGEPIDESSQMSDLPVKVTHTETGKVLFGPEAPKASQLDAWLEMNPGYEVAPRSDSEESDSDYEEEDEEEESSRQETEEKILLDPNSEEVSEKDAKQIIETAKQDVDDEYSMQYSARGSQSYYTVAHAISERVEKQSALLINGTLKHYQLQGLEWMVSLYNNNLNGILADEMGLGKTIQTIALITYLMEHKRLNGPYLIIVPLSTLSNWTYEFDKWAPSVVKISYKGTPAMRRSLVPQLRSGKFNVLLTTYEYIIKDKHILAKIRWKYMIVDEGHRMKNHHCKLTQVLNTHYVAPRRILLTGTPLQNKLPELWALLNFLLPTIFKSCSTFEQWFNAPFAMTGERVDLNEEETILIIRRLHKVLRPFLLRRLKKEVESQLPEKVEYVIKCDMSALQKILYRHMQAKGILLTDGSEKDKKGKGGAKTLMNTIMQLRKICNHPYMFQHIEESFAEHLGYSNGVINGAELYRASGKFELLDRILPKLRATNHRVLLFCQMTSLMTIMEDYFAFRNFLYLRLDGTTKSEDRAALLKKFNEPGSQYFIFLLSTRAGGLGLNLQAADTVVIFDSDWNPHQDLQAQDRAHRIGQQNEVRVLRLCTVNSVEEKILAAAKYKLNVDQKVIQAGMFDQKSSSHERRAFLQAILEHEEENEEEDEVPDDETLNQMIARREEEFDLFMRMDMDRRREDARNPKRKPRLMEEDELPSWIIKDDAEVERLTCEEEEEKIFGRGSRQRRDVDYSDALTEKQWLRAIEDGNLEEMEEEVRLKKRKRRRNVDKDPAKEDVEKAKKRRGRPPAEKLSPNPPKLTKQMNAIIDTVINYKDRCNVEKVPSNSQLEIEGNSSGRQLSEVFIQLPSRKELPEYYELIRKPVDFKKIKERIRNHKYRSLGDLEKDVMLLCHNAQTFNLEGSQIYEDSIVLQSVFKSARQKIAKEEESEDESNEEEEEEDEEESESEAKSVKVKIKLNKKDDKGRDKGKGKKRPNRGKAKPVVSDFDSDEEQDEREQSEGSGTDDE
T2 sequence (P51532 whole entry): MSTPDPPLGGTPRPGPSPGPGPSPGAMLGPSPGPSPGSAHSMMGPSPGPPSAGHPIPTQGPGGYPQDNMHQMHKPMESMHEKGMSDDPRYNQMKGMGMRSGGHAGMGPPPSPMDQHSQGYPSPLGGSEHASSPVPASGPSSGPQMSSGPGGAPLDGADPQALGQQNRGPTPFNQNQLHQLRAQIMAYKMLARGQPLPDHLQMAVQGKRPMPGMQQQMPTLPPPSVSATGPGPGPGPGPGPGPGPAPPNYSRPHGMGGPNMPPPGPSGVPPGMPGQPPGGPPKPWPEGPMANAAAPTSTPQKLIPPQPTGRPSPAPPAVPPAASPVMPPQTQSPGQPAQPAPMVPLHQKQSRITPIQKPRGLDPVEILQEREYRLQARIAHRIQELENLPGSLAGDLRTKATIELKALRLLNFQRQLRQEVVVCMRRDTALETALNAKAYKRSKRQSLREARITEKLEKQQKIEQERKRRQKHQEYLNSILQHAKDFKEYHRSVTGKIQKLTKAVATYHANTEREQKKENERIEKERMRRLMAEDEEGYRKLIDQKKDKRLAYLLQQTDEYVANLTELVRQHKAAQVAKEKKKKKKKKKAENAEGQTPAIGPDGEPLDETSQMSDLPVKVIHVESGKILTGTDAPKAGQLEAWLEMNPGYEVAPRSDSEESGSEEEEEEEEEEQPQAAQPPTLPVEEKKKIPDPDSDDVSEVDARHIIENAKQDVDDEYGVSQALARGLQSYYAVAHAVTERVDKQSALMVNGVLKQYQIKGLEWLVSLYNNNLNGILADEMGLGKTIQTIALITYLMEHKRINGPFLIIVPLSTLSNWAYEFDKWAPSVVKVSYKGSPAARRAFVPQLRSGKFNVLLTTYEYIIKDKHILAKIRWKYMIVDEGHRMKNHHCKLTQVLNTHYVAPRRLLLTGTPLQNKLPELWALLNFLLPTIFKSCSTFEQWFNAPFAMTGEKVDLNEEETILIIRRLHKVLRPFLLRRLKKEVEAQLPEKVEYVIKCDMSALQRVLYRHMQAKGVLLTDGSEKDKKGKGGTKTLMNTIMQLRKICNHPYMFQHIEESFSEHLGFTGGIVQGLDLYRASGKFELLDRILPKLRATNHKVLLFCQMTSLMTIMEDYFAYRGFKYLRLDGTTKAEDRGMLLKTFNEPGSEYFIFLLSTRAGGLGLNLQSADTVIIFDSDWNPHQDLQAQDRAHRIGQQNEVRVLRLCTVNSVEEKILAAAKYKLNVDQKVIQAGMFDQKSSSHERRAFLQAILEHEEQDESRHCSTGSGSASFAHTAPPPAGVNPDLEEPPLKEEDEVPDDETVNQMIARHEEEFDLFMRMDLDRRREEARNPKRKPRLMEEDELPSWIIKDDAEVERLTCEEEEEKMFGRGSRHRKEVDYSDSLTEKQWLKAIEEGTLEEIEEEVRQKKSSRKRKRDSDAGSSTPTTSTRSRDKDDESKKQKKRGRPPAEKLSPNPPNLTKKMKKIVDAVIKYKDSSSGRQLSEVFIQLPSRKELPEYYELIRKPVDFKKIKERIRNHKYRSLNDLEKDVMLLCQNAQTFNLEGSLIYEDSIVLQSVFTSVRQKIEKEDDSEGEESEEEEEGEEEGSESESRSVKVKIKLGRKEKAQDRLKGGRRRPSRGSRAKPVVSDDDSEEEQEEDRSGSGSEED

For the molecule `Cc1cccc(-c2cc3c(nn2)NC[C@H]2C[C@@H](Oc4ccc(CN5CCN(c6ccc7c(c6)C(=O)N(C6CCC(=O)NC6=O)C7)CC5)cc4)CN32)c1O` (stereo partly drawn) [Example 23, 3-(6-(4-(4-(((6aR,8R)-2-(2-hydroxy-3-methylphenyl)-5,6,6a,7,8,9-hexahydropyrrolo[1′,2′:4,5]pyrazino[2,3-c]pyridazin-8-yl)oxy)benzyl)piperazin-1-yl)-1-oxoisoindolin-2-yl)piperidine-2,6-dione], in assay [1], the DC50 (commonly the midpoint of the concentration-degradation curve) is below 100 nM and the Dmax (usually the largest share of the target that was removed) is above 75%. Besides, in assay [2], the half-maximal degradation concentration (DC50) was below 100 nM and the Dmax lay in the range of 50 to 75%.
In assay [1], `O=C1CCC(N2Cc3ccc(N4CCN(Cc5ccc(O[C@@H]6C[C@@H]7CNc8nnc(-c9cc(F)cc(F)c9O)cc8N7C6)cc5OC(F)(F)F)CC4)cc3C2=O)C(=O)N1` (stereo partly drawn) [Example 24, 3-(6-(4-(4-(((6aR,8R)-2-(3,5-difluoro-2-hydroxyphenyl)-5,6,6a,7,8,9-hexahydropyrrolo[1′,2′:4,5]pyrazino[2,3-c]pyridazin-8-yl)oxy)-2-(trifluoromethoxy)benzyl)piperazin-1-yl)-1-oxoisoindolin-2-yl)piperidine-2,6-dione] displayed a 50% degradation concentration (DC50) below 100 nM and a Dmax of 50 to 75%. In assay [2], the DC50 is above 1000 nM and the greatest degradation seen (Dmax) was below 50%.
In assay [1], `O=C1CC[C@H](N2Cc3ccc(N4CCN(Cc5ccc(O[C@@H]6C[C@@H]7CNc8nnc(-c9cccc(Cl)c9O)cc8N7C6)cc5)CC4)cc3C2=O)C(=O)N1` [Example 25, (S)-3-(6-(4-(4-(((6aR,8R)-2-(3-chloro-2-hydroxyphenyl)-5,6,6a,7,8,9-hexahydropyrrolo[1′,2′:4,5]pyrazino[2,3-c]pyridazin-8-yl)oxy)benzyl)piperazin-1-yl)-1-oxoisoindolin-2-yl)piperidine-2,6-dione] returned a DC50 below 100 nM and a Dmax above 75%. Further, in assay [2], the DC50 was below 100 nM and the Dmax is above 75%.
In assay [1], `O=C1CCC(N2Cc3ccc(N4CCN(Cc5cnc(S[C@@H]6C[C@@H]7CNc8nnc(-c9cc(F)cc(F)c9O)cc8N7C6)nc5)CC4)cc3C2=O)C(=O)N1` (stereo partly drawn) [Example 26, 3-(6-(4-((2-(((6aR,8R)-2-(3,5-difluoro-2-hydroxyphenyl)-5,6,6a,7,8,9-hexa-hydropyrrolo[1′,2′:4,5]pyrazino[2,3-c]pyridazin-8-yl)thio)pyrimidin-5-yl)methyl)piperazin-1-yl)-1-oxoisoindolin-2-yl)piperidine-2,6-dione] came in with a DC50 below 100 nM and a Dmax above 75%. In assay [2], this molecule showed a DC50 below 100 nM and a Dmax above 75%.
Regarding `Cc1cc(O[C@@H]2C[C@@H]3CNc4nnc(-c5cc(F)cc(F)c5O)cc4N3C2)ncc1CN1CCN(c2ccc3c(c2)C(=O)N(C2CCC(=O)NC2=O)C3)CC1` (stereo partly drawn) [Example 27, 3-(6-(4-((6-(((6aR,8R)-2-(3,5-difluoro-2-hydroxyphenyl)-5,6,6a,7,8,9-hexahydropyrrolo[1′,2′:4,5]pyrazino[2,3-c]pyridazin-8-yl)oxy)-4-methylpyridin-3-yl)methyl)piperazin-1-yl)-1-oxoisoindolin-2-yl)piperidine-2,6-dione], the DC50 in assay [1] and in assay [2] was below 100 nM in each case. The Dmax is above 75% in assay [1] and 50 to 75% in assay [2].
For the molecule `Cc1cc(O[C@@H]2C[C@@H]3CNc4nnc(-c5cc(F)cc(F)c5O)cc4N3C2)ncc1CN1CCN(c2ccc3c(c2)C(=O)N([C@H]2CCC(=O)NC2=O)C3)CC1` [Example 28, (S)-3-(6-(4-((6-(((6aR,8R)-2-(3,5-difluoro-2-hydroxyphenyl)-5,6,6a,7,8,9-hexahydropyrrolo[1′,2′:4,5]pyrazino[2,3-c]pyridazin-8-yl)oxy)-4-methylpyridin-3-yl)methyl)piperazin-1-yl)-1-oxoisoindolin-2-yl)piperidine-2,6-dione], in assay [1], the DC50 is below 100 nM and the Dmax was above 75%. Also, in assay [2], the DC50 is below 100 nM and the Dmax is 50 to 75%.
Take `Cc1cc(O[C@@H]2C[C@@H]3CNc4nnc(-c5cc(F)cc(F)c5O)cc4N3C2)ncc1CN1CCC(c2ccc3c(c2)C(=O)N([C@H]2CCC(=O)NC2=O)C3)CC1` [Example 29, (S)-3-(6-(1-((6-(((6aR,8R)-2-(3,5-difluoro-2-hydroxyphenyl)-5,6,6a,7,8,9-hexahydropyrrolo[1′,2′:4,5]pyrazino[2,3-c]pyridazin-8-yl)oxy)-4-methylpyridin-3-yl)methyl)piperidin-4-yl)-1-oxoisoindolin-2-yl)piperidine-2,6-dione]: the DC50 in assay [1] and in assay [2] was below 100 nM each time. In addition, the results for the Dmax in assay [1] and in assay [2] were above 75% and 50 to 75%, respectively.
In assay [1], `Cc1nc(O[C@@H]2C[C@@H]3CNc4nnc(-c5cc(F)cc(F)c5O)cc4N3C2)ccc1CN1CCN(c2ccc3c(c2)C(=O)N([C@H]2CCC(=O)NC2=O)C3)CC1` [Example 30, (S)-3-(6-(4-((6-(((6aR,8R)-2-(3,5-difluoro-2-hydroxyphenyl)-5,6,6a,7,8,9-hexahydropyrrolo[1′,2′:4,5]pyrazino[2,3-c]pyridazin-8-yl)oxy)-2-methylpyridin-3-yl)methyl)piperazin-1-yl)-1-oxoisoindolin-2-yl)piperidine-2,6-dione] displayed a half-maximal degradation concentration (DC50) below 100 nM and a Dmax above 75%. For the same molecule, in assay [2], the DC50 was below 100 nM and the Dmax was above 75%.
Turning to `Cc1cc(CN2CCN(c3ccc4c(c3)C(=O)N(C3CCC(=O)NC3=O)C4)CC2)cnc1O[C@@H]1C[C@@H]2CNc3nnc(-c4cc(F)cc(F)c4O)cc3N2C1` (stereo partly drawn) [Example 31, 3-(6-(4-((6-(((6aR,8R)-2-(3,5-difluoro-2-hydroxyphenyl)-5,6,6a,7,8,9-hexahydropyrrolo[1′,2′:4,5]pyrazino[2,3-c]pyridazin-8-yl)oxy)-5-methylpyridin-3-yl)methyl)piperazin-1-yl)-1-oxoisoindolin-2-yl)piperidine-2,6-dione], the DC50 in assay [1] and in assay [2] was below 100 nM throughout. In addition, the Dmax in assay [1] and in assay [2] was above 75% in each case.
Take `O=C1CCC(N2Cc3ccc(N4CCN(Cc5ccc(S[C@@H]6C[C@@H]7CNc8nnc(-c9cc(F)cc(F)c9O)cc8N7C6)cc5)CC4)cc3C2=O)C(=O)N1` (some centres unmarked) [Example 32]: in assay [1], the DC50 is below 100 nM and the Dmax was above 75%. In assay [2], this molecule displayed a DC50 below 100 nM and a Dmax of 50 to 75%.
In assay [1], `O=C1CCC(N2Cc3ccc(N4CCN(Cc5ccc(O[C@@H]6C[C@@H]7CNc8nnc(-c9cc(F)cc(F)c9O)cc8N7C6)nc5)CC4)cc3C2=O)C(=O)N1` (stereo partly drawn) [Example 33, 3-(6-(4-((6-(((6aR,8R)-2-(3,5-difluoro-2-hydroxyphenyl)-5,6,6a,7,8,9-hexahydropyrrolo[1′,2′:4,5]pyrazino[2,3-c]pyridazin-8-yl)oxy)pyridin-3-yl)methyl)piperazin-1-yl)-1-oxoisoindolin-2-yl)piperidine-2,6-dione] yielded a DC50 below 100 nM and a Dmax above 75%. In assay [2], this molecule came in with a DC50 below 100 nM and a maximal degradation (Dmax) above 75%.
